# In BindingDB's records for doi:10.1016/j.bmcl.2006.10.059 (Merck Research Laboratories, 2007):
# Assay: Inhibition of MCP1-stimulated chemotaxis in monocytes transfected with human CCR2
row,SMILES,IC50
1,"CC(=O)Nc1nc([C@@H](CCN2CCC3(C=Cc4ccccc43)CC2)C(=O)NCc2cc(C(F)(F)F)cc(C(F)(F)F)c2)cs1 [(2R)-N-{[3,5-bis(trifluoromethyl)phenyl]methyl}-2-(2-acetamido-1,3-thiazol-4-yl)-4-{spiro[indene-1,4'-piperidine]-1'-yl}butanamide]",27 nM
2,"CC(=O)Nc1nc([C@H](CCN2CCC3(C=Cc4ccccc43)CC2)C(=O)NCc2cc(C(F)(F)F)cc(C(F)(F)F)c2)cs1 [(2S)-N-{[3,5-bis(trifluoromethyl)phenyl]methyl}-2-(2-acetamido-1,3-thiazol-4-yl)-4-{spiro[indene-1,4'-piperidine]-1'-yl}butanamide]",5.3 nM
3,"CNC(=O)Nc1nc([C@@H](CCN2CCC(c3ccccc3)CC2)C(=O)NCc2cc(C(F)(F)F)cc(C(F)(F)F)c2)cs1 [(R)-1-(4-(1-(3,5-bis(trifluoromethyl)benzylamino)-1-oxo-4-(4-phenylpiperidin-1-yl)butan-2-yl)thiazol-2-yl)-3-methylurea]",87 nM
4,"CNC(=O)Nc1nc([C@H](CCN2CCC(c3ccccc3)CC2)C(=O)NCc2cc(C(F)(F)F)cc(C(F)(F)F)c2)cs1 [(S)-1-(4-(1-(3,5-bis(trifluoromethyl)benzylamino)-1-oxo-4-(4-phenylpiperidin-1-yl)butan-2-yl)thiazol-2-yl)-3-methylurea]",1.8 nM
5,"CC(=O)Nc1nc(C(CCN2CCC3(C=Cc4ccccc43)[C@@H](C)C2)C(=O)NCc2cc(C(F)(F)F)cc(C(F)(F)F)c2)cs1 (stereo partly drawn) [N-{[3,5-bis(trifluoromethyl)phenyl]methyl}-2-(2-acetamido-1,3-thiazol-4-yl)-4-[(5'R)-5'-methylspiro[indene-1,4'-piperidine]-1'-yl]butanamide]",0.6 nM

# More lines, in order of falling IC50, values ahead:
row,IC50,SMILES
1,0.7 nM,"CC(=O)Nc1nc([C@H](CCN2CCC(c3ccccc3)CC2)C(=O)NCc2cc(C(F)(F)F)cc(C(F)(F)F)c2)cs1 [(S)-N-(3,5-bis(trifluoromethyl)benzyl)-2-(2-acetamidothiazol-4-yl)-4-(4-phenylpiperidin-1-yl)butanamide]"
2,0.7 nM,"CC(=O)Nc1nc(C(CCN2CCC3(C=Cc4ccccc43)CC2)C(=O)NCc2cc(C(F)(F)F)cc(C(F)(F)F)c2)cs1 (configuration not stated) [N-{[3,5-bis(trifluoromethyl)phenyl]methyl}-2-(2-acetamido-1,3-thiazol-4-yl)-4-{spiro[indene-1,4'-piperidine]-1'-yl}butanamide]"
